Several values for one entry are separate records, joined by “and”; a condition that tells them apart may be missing. Identical values can stand only once.
Details: Liquid

CC(F)F [1,1-difluoroethane]
Details | vapor or sublimation pressure
253.68 K | 115.2 kPa
258.44 K | 142.2 kPa and 144 kPa
263.39 K | 174.9 kPa
268.32 K | 213.7 kPa
273.23 K | 256.8 kPa
278.19 K | 308.1 kPa
278.25 K | 311.7 kPa
283.31 K | 368.5 kPa
288.27 K | 432.9 kPa
293.23 K | 506.8 kPa
298.17 K | 590.3 kPa
298.84 K | 604.4 kPa
303.37 K | 687.6 kPa
308.31 K | 791 kPa
308.37 K | 812.5 kPa
313.19 K | 904.5 kPa
318.25 K | 1034.8 kPa
323.26 K | 1175.4 kPa
323.3 K | 1185.5 kPa
328.12 K | 1326.8 kPa
333.31 K | 1502.3 kPa
338.19 K | 1683.5 kPa
343.1 K | 1879.6 kPa
343.2 K | 1891.7 kPa
348.26 K | 2104.6 kPa

O=C=O [carbon dioxide]
Details | vapor or sublimation pressure [kPa]
258.44 K | 2294
278.25 K | 3977
298.84 K | 6502.6

— the NIST ThermoML archive (doi:10.1016/j.jct.2008.06.002)
